Data set [1] deals with full-length FLAG-tagged B-Raf(V600E) (Homo sapiens (Human), UniProt P15056, V600E). Nature of the data set: BRAF V600E enzyme assay (TR-FRET competitive displacement). The data set is classed as binding. As to conditions: averaged IC50; TR-FRET tracer displacement, 60 min. On the procedure:
A competitive displacement assay was configured for B-Raf that monitors the amount of a fluorescently-tagged “tracer” bound to B-Raf via TR-FRET from an anti-tag Eu-labeled antibody also bound to B-Raf. For full-length FLAG-tagged B-Raf(V600E), the assay mixtures consisted of 25 mM K^+HEPES, pH 7.4, 10 mM MgCl2, 0.01% Triton X-100, 1 mM DTT, 2% DMSO (from compound), 50 nM Tracer 1710 (ThermoFisher, PR9176A), 0.5 nM Eu anti-FLAG (M2)-cryptate Ab (Cisbio, 61FG2KLB) and 5 nM full-length, N-terminally FLAG-tagged B-Raf(V600E) (Origene Technologies, TP700031. Compounds were typically diluted in DMSO across an 11-point dosing range created using a 3-fold serial dilution protocol at a top dose of 10 μM. The assay was run in 384-well, polystyrene, low-volume, non-treated, white microtiter plates (Costar 4512) in a final volume of 12 μL. Low control wells included 1 μM of a potent B-Raf inhibitor as a control. The assays were incubated at ambient temperature (typically 22° C.) for 60 min and then read on a PerkinElmer EnVision microplate reader using standard TRF settings (λEx=320 nm, λEm=615 & 665 nm). The ratioed counts (665 nm/615 nm) were converted to percent of control (POC) using the following equation:
[formula] • where: • Xmax Average Uninhibited Controls • Xmin Average Background
A 4-parameter logistic model was the fit to the POC data for each compound. From that fit, the IC50 was estimated and is defined as the concentration of compound at which the best-fit curve crosses 50 POC.
For orientation: Time-resolved FRET reads energy transfer from a long-lived donor to a nearby acceptor.

The test system of the next data set is A375 cells. Nature of the data set: Cellular phospho-ERK inhibition assay in A375 cells. The data set is classed as cell-based. As to conditions: Homo sapiens, A-375, A375 cells (head prints A357), 2 hours treatment, read-out: A357 cell IC50. On the procedure:
(§1) A375 and H1755 cells were obtained from the American Type Culture Collection (ATCC, Rockville, MD). A375 cells were maintained in DMEM growth medium containing 10% FBS. H1755 cells were maintained in RPMI growth medium containing 10% FBS.
(§2) Cells were harvested according to standard protocols, counted and plated onto flat-bottom, 96-well tissue culture plates (Costar #3599) at 2.5×10^4 cells/well for A375 cells and 1.5×10^4 cells/well for H1755 cells in 100 μL/well of growth medium containing 10% FBS. After an overnight incubation at 37° C. with 5% CO2 cells were treated for 2 hours at 37° C., 5% CO2 with compounds prepared as a 9-point, 1:3.33 fold dilution series with final compound concentrations ranging from 66 pM-10 μM and a constant DMSO concentration of 0.25%. Control wells contained either 0.25% DMSO alone (uninhibited control) or 10 μM binimetinib (complete inhibition control). The levels of phosphorylated ERK are determined using an In Cell Western protocol: following compound incubation, growth medium was discarded, and cells were fixed with 0.4% formaldehyde in PBS for 20 minutes at room temperature. Cells were permeabilized with 100% methanol for 10 minutes at room temperature. Plates were washed with PBS containing 0.05% Tween-20 and blocked for 1 hour at room temperature with LI-COR Blocking Buffer (LI-COR Biosciences; Cat #927-40000). Plates were then incubated for 2 hours at room temperature with 50 μL of a 1:400 dilution of anti-phospho-ERK1/2 (Thr202/Tyr204) (Cell Signaling; Cat #9101) and a 1:1000 dilution of anti-GAPDH (Millipore; Cat #MAB374) in LI-COR blocking buffer containing 0.05% Tween-20. Plates were washed with PBS containing […] Tween-20 then incubated at room temperature for 1 hour with 50 μL of a 1:1000 dilution of anti-rabbit AlexaFluor 680 (Life Technologies; Cat #A21109) and a 1:1000 dilution of anti-mouse IRDye 800CW (LI-COR; Cat #926-32210) in LI-COR blocking buffer containing 0.05% Tween-20. Plates were analyzed by reading on an Odyssey CLx infrared scanner. For each well, the phospho-ERK signal was normalized to the GAPDH signal and converted to POC using the following equation:
(§3) [formula] • Where: • Xmax Average Uninhibited Controls • Xmin Average Complete Inhibition Controls IC50 values were then calculated using a 4-parameter fit in XLfit software and are provided in Table A1.

The subject of another data set is H1755 cells. Nature of the data set: Cellular phospho-ERK inhibition assay in H1755 cells. As to conditions: Homo sapiens, NCI-H1755, 2 hours treatment, read-out: H1755 Cell IC50. The class given is cell-based. On the procedure: as §1, §2, §3
Data set [2] can be described thus: MDR1 LLC-PK1 and BCRP MDCKII permeability assay: permeability coefficient (Papp). The data set is classed as in vitro ADME. The source says: (§4) Final organic concentration in the assay was 1%.
The target of another data set is P-gp (MDR1) (Homo sapiens (Human), UniProt P08183). As to the kind of experiment: MDR1 LLC-PK1 permeability assay: efflux ratio. The data set is classed as in vitro ADME. As to conditions: pig.
Description: as §4

A further data set addresses BCRP (Homo sapiens (Human), UniProt Q9UNQ0). Nature of the data set: BCRP MDCKII permeability assay: efflux ratio. The settings on record: dog. The class given is in vitro ADME.

SMILES strings stand for the structures. Where a name gives a salt, the structure may show the parent alone.

One may read the IC50 as the point on the concentration scale where inhibition reaches its midpoint. As a reminder, the Papp is a coefficient for how fast a substance crosses the barrier. Higher therefore signals ready permeation. One may read the efflux ratio as the permeability from basolateral to apical divided by that in the opposite direction, in the common usage.

Sequence of BCRP (Q9UNQ0 whole entry): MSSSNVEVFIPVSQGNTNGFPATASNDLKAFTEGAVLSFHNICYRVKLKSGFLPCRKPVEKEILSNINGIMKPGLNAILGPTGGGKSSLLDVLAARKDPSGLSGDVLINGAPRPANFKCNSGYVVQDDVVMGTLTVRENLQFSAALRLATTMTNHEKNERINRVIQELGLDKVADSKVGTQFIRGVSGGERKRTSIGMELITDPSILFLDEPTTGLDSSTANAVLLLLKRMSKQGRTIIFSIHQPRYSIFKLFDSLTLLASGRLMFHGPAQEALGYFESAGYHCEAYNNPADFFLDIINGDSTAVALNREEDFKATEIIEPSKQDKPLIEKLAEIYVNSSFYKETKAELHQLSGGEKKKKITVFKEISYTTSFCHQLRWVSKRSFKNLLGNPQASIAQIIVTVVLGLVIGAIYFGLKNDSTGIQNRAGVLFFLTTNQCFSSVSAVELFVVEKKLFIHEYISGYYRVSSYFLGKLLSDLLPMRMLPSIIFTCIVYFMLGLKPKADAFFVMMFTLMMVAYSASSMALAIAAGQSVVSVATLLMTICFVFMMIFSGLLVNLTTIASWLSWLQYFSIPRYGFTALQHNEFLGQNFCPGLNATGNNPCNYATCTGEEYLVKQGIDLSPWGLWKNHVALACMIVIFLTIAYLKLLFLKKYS
Sequence of full-length FLAG-tagged B-Raf(V600E) (P15056 whole entry V600E): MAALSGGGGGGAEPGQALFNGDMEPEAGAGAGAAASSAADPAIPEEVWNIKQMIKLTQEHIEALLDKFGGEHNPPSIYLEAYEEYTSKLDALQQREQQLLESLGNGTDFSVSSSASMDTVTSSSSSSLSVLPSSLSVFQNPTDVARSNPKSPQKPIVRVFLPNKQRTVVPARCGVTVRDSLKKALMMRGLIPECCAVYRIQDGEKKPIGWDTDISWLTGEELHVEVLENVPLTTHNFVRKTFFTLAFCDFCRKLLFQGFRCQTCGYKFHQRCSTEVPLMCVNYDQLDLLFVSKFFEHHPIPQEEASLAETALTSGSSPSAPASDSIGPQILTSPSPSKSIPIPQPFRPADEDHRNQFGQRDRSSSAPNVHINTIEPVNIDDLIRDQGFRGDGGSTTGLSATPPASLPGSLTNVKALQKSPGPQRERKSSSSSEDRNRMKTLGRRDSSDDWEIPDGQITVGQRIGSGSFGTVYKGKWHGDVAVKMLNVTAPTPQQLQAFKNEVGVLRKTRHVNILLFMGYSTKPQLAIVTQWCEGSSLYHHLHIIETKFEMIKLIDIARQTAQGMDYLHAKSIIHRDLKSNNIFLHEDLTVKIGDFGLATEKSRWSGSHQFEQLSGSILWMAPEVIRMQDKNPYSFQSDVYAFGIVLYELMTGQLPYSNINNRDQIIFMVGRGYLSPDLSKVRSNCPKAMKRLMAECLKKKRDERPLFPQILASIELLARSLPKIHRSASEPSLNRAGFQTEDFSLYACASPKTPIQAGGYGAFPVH
Sequence of P-gp (MDR1) (P08183 whole entry, species assumed): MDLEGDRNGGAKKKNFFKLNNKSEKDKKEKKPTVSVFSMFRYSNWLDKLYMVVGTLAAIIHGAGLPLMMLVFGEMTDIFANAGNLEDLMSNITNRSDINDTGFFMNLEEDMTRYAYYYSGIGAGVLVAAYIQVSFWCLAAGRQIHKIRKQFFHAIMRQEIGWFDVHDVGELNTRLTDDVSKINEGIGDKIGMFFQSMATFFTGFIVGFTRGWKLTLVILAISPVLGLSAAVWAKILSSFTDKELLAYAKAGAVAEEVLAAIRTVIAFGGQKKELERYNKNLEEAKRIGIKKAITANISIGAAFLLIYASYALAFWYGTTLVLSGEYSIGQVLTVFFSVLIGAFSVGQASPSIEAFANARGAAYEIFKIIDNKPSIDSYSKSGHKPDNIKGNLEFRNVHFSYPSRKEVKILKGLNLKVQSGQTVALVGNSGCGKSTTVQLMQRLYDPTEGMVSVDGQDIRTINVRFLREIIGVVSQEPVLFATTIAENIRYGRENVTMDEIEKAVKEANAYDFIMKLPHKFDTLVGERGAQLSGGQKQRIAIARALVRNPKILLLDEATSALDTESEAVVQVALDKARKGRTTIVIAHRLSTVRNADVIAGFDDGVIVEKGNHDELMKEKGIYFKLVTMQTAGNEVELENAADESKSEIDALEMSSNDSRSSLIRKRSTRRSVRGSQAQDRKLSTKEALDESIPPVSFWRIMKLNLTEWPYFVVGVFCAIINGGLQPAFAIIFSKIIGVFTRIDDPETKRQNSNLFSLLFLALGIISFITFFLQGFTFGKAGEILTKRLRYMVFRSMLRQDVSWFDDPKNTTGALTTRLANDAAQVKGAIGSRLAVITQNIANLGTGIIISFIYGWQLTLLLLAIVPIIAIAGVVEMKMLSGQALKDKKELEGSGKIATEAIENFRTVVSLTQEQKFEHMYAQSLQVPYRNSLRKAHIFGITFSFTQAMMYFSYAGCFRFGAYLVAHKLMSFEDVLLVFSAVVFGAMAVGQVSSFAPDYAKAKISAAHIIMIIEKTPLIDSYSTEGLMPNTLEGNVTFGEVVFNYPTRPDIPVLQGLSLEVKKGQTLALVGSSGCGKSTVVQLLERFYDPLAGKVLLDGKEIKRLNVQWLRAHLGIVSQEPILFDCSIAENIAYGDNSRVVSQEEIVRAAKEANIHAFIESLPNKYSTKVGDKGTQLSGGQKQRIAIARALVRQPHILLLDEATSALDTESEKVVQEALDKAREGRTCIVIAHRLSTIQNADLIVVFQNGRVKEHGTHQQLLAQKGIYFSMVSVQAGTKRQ

On to `CO[C@H]1CN(S(=O)(=O)Nc2cc(F)c(F)c(Nc3ccc4ncn(C)c(=O)c4c3C)c2Cl)C[C@H]1F` (relative stereo) [Example 100, cis-N-(2-chloro-3-((3,5-dimethyl-4-oxo-3,4-dihydroquinazolin-6-yl)amino)-4,5-difluorophenyl)-3-fluoro-4-methoxypyrrolidine-1-sulfonamide], for which the 50% inhibitory concentration (IC50) in data set [1] worked out at 6 nM; in the data set with A375 cells, 47 nM; with H1755 cells, 293 nM.
For `C=Cc1c(Nc2c(F)ccc(NS(=O)(=O)N3CCCC3)c2Cl)ccc2ncn(C)c(=O)c12` [Example 51, N-(2-chloro-4-fluoro-3-((3-methyl-4-oxo-5-vinyl-3,4-dihydroquinazolin-6-yl)amino)phenyl)pyrrolidine-1-sulfonamide trifluoroacetate], in that order: 77 nM, 58 nM and 278 nM.
For `CCc1c(Nc2c(F)ccc(NS(=O)(=O)N3CCCC3)c2Cl)ccc2ncn(C)c(=O)c12` [Example 52, N-(2-chloro-3-((5-ethyl-3-methyl-4-oxo-3,4-dihydroquinazolin-6-yl)amino)-4-fluorophenyl)pyrrolidine-1-sulfonamide trifluoroacetate], the IC50 in data set [1] was determined as 141 nM; in the data set with A375 cells it was 124 nM; with H1755 cells, 857 nM.
Consider `Cc1c(Nc2c(F)ccc(NS(=O)(=O)N3CC(COC(F)F)C3)c2Cl)ccc2ncn(C)c(=O)c12` [Example 137, N-(2-chloro-3-((3,5-dimethyl-4-oxo-3,4-dihydroquinazolin-6-yl)amino)-4-fluorophenyl)-3-((difluoromethoxy)methyl)azetidine-1-sulfonamide trifluoroacetate], for which the IC50 in data set [1] was 8 nM; with A375 cells it was 37 nM. In data set [2], the Papp at 2 h, 1 µM worked out at 36 ×10⁻⁶ cm/s. In addition, the efflux ratio at 2 h, 1 µM is 2 at P-gp (MDR1) and 1.5 at BCRP.
For the compound `COCC1(C)CN(S(=O)(=O)Nc2ccc(F)c(Nc3ccc4ncn(C)c(=O)c4c3C)c2Cl)C1` [Example 140, N-(2-chloro-3-((3,5-dimethyl-4-oxo-3,4-dihydroquinazolin-6-yl)amino)-4-fluorophenyl)-3-(methoxymethyl)-3-methylazetidine-1-sulfonamide trifluoroacetate], the values for the half-maximal inhibitory concentration (IC50) (in data set [1]; with A375 cells) were 16 nM and 52 nM, respectively. The apparent permeability (Papp) at 2 h, 1 µM in data set [2] was determined as 48 ×10⁻⁶ cm/s. Moreover, the efflux ratio at 2 h, 1 µM at P-gp (MDR1) was 1.2; at BCRP it was 0.8.
Turning to `CCOC1CN(S(=O)(=O)Nc2ccc(F)c(Nc3ccc4ncn(C)c(=O)c4c3Cl)c2Cl)C1` [Example 141, N-(2-chloro-3-((5-chloro-3-methyl-4-oxo-3,4-dihydroquinazolin-6-yl)amino)-4-fluorophenyl)-3-ethoxyazetidine-1-sulfonamide], the IC50 came out at 20 nM in data set [1] and 23 nM in the data set with A375 cells. In data set [2], this compound returned a Papp at 2 h, 1 µM of 29 ×10⁻⁶ cm/s. For the same compound, the values for the efflux ratio at 2 h, 1 µM at P-gp (MDR1) and on BCRP were 1.7 and 2.2, respectively.
Turning to `CCOC1CN(S(=O)(=O)Nc2ccc(F)c(Nc3ccc4ncn(C)c(=O)c4c3F)c2Cl)C1` [Example 142, N-(2-chloro-4-fluoro-3-((5-fluoro-3-methyl-4-oxo-3,4-dihydroquinazolin-6-yl)amino)phenyl)-3-ethoxyazetidine-1-sulfonamide], the IC50 stood at 24 nM in data set [1] and 20 nM in the data set with A375 cells. The compound also gave a Papp at 2 h, 1 µM in data set [2] of 21 ×10⁻⁶ cm/s. The results for the efflux ratio at 2 h, 1 µM at P-gp (MDR1) and at BCRP were 3.2 and 2.5, respectively.
On the same counts, the results for `COCC1(F)CN(S(=O)(=O)Nc2ccc(F)c(Nc3ccc4ncn(C)c(=O)c4c3C)c2Cl)C1` [Example 145, N-(2-chloro-3-((3,5-dimethyl-4-oxo-3,4-dihydroquinazolin-6-yl)amino)-4-fluorophenyl)-3-fluoro-3-(methoxymethyl)azetidine-1-sulfonamide trifluoroacetate] are 6 nM, 25 nM, 29 ×10⁻⁶ cm/s, 2.6 and 2.4.
For `Cn1cnc2ccc(Nc3c(F)ccc(NS(=O)(=O)N4CC5(CCC5)C4)c3Cl)c(Cl)c2c1=O` [Example 158, N-(2-chloro-3-((5-chloro-3-methyl-4-oxo-3,4-dihydroquinazolin-6-yl)amino)-4-fluorophenyl)-2-azaspiro[3.3]heptane-2-sulfonamide trifluoroacetate], in that order: 8 nM, 156 nM, 26 ×10⁻⁶ cm/s, 1.5 and 1.1.
For `Cn1cnc2ccc(Nc3c(F)ccc(NS(=O)(=O)N4CC5(CCC5)C4)c3Cl)c(F)c2c1=O` [Example 159, N-(2-chloro-4-fluoro-3-((5-fluoro-3-methyl-4-oxo-3,4-dihydroquinazolin-6-yl)amino)phenyl)-2-azaspiro[3.3]heptane-2-sulfonamide trifluoroacetate], in that order: 8 nM, 90 nM, 33 ×10⁻⁶ cm/s, 1.8 and 1.1.
Consider `CCOC1CN(S(=O)(=O)Nc2ccc(F)c(Nc3ccc4ncn(C)c(=O)c4c3C)c2Cl)C1` [Example 160, N-(2-chloro-3-((3,5-dimethyl-4-oxo-3,4-dihydroquinazolin-6-yl)amino)-4-fluorophenyl)-3-ethoxyazetidine-1-sulfonamide], for which the half-maximal inhibitory concentration (IC50) in data set [1] was 33 nM; in the data set on A375 cells, 87 nM. The compound also returned an apparent permeability (Papp) at 2 h, 1 µM in data set [2] of 38 ×10⁻⁶ cm/s. Also, the efflux ratio at 2 h, 1 µM at P-gp (MDR1) and on BCRP was 1.3 throughout.
In the case of `Cc1c(Nc2c(F)ccc(NS(=O)(=O)N3CC(OC(F)F)C3)c2Cl)ccc2ncn(C)c(=O)c12` [Example 161, N-(2-chloro-3-((3,5-dimethyl-4-oxo-3,4-dihydroquinazolin-6-yl)amino)-4-fluorophenyl)-3-(difluoromethoxy)azetidine-1-sulfonamide], the IC50 came to 24 nM in data set [1] and 245 nM in the data set on A375 cells. The compound further gave a Papp at 2 h, 1 µM in data set [2] of 27 ×10⁻⁶ cm/s. Further, the efflux ratio at 2 h, 1 µM on P-gp (MDR1) came out at 1.9; on BCRP, 2.6.
On the same counts, the results for `Cc1c(Nc2c(F)ccc(NS(=O)(=O)N3CC4(CC4)C3)c2Cl)ccc2ncn(C)c(=O)c12` [Example 163, N-(2-chloro-3-((3,5-dimethyl-4-oxo-3,4-dihydroquinazolin-6-yl)amino)-4-fluorophenyl)-5-azaspiro[2.3]hexane-5-sulfonamide trifluoroacetate] are 8 nM, 179 nM, 23 ×10⁻⁶ cm/s, 1.9 and 1.4.
